Tests used:
Assay type in all cases: biochemical
[1] = target: T1, MMP-8 (Homo sapiens, UniProt P22894); assay: In vitro MMP-8 inhibition test; conditions: human MMP-8
T1 construct: purchased R&D Systems 908-MP
Text: (§1) The MMP-mediated amidolytic cleavage of a suitable peptide substrate leads to an increase in fluorescent light here too. The signal intensity of the fluorescent light is directly proportional to the enzyme activity. The active concentration of a test compound at which half the enzyme is inhibited (50% signal intensity of the fluorescent light) is reported as the IC50 value.
(§2) Recombinant MMP-8 (R&D Systems, 908-MP) is chemically activated in accordance with the manufacturer's instructions using APMA. 1 μl of the test compound to be analysed (as a solution in DMSO, suitable concentrations e.g. 1 nM to 30 μM) is pipetted into 24 μl of activated enzyme (final concentration e.g. 0.5 nM) in reaction buffer (50 mM Tris/HCl pH 7.5, 10 mM CaCl2, 150 mM NaCl, 0.05% Brij®-35) in a white 384-hole microtiter plate (MTP). The enzymatic reaction is started by adding the intramolecularly quenched Mca-Pro-Leu-Gly-Leu-Dpa(Dnp)-Ala-Arg-NH2 substrate (final concentration e.g. 10 μM; R&D Systems, ES-001), so as to result in a total test volume of 50 μl. The course of the MMP-8 reaction is measured by measuring the fluorescence intensity (excitation 320 nm, emission 410 nm) over a suitable period of time (e.g. over 120 min at a temperature of 32° C.).

[2] = target: T2, MMP-2 (Homo sapiens, UniProt P08253); assay: In vitro MMP-2 inhibition test; conditions: human MMP-2
T2 construct: purchased R&D Systems 902-MP
T2 sequence (P08253 110-660): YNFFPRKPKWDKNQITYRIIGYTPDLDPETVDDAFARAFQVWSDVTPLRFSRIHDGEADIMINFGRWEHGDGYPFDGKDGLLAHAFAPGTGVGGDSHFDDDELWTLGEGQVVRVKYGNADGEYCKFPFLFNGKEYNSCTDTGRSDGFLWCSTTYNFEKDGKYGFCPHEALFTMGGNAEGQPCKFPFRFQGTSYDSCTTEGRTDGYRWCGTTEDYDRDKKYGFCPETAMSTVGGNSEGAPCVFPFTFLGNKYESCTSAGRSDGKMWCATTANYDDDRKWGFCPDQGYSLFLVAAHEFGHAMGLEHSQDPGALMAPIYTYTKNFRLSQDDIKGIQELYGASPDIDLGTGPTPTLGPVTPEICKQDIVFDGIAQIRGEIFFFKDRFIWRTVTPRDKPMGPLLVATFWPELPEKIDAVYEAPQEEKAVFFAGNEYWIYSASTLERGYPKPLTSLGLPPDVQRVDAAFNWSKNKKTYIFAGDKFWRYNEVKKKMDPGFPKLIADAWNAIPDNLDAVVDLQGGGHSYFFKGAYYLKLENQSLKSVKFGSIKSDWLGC
Text: as §1
as §2, with “MMP-2” for “MMP-8”, “902-MP)” for “908-MP)”, “2” for “0.5”

[3] = target: T3, MMP-9 (Homo sapiens, UniProt P14780); assay: In vitro MMP-9 inhibition test; conditions: human MMP-9
T3 construct: purchased R&D Systems 911-MP
T3 sequence (P14780 107-707 limits assumed): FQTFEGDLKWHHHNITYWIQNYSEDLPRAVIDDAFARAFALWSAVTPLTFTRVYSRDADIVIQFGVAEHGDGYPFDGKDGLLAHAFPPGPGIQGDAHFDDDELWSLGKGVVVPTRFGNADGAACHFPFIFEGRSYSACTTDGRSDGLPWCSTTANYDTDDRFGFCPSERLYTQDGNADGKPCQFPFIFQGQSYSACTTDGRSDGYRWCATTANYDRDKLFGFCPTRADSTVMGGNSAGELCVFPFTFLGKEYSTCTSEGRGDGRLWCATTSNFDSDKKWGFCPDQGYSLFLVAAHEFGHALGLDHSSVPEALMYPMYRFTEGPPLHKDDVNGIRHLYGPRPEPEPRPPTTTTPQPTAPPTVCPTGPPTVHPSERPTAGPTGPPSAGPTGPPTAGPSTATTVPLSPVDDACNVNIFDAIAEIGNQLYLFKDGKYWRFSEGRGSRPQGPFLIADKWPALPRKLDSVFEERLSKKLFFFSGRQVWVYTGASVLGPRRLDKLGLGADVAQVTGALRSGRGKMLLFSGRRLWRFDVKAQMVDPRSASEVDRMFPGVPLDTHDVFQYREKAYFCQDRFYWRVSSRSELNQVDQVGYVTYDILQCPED
Text: as §1
as §2, with “MMP-9” for “MMP-8”, “911-MP)” for “908-MP)”, “0.1” for “0.5”

[4] = target: T4, MMP-14 (Homo sapiens, UniProt P50281); assay: In vitro MMP-14 inhibition test; conditions: human MMP-14
T4 construct: purchased R&D Systems 918-MP
Text: as §1
Recombinant MMP-14 (R&D Systems, 918-MP) is enzymatically activated in accordance with the manufacturer's instructions using recombinant furin (R&D Systems, 1503-SE). 1 μl of the test compound to be analysed (as a solution in DMSO, suitable concentrations e.g. 1 nM to 30 μM) is pipetted into 24 μl of activated enzyme (final concentration e.g. 0.5 nM) in reaction buffer (50 mM Tris/HCl pH 7.5, 10 mM CaCl2, 150 mM NaCl, 0.05% Brij®-35) in a white 384-hole microtiter plate (MTP). The enzymatic reaction is started by adding the intramolecularly quenched Mca-Lys-Pro-Leu-Gly-Leu-Dpa(Dnp)-Ala-Arg-NH2 substrate (final concentration e.g. 5 μM; R&D Systems, ES-010), so as to result in a total test volume of 50 μl. The course of the MMP-14 reaction is measured by measuring the fluorescence intensity (excitation 320 nm, emission 410 nm) over a suitable period of time (e.g. over 120 min at a temperature of 32° C.).

T1 sequence (P22894 101-467): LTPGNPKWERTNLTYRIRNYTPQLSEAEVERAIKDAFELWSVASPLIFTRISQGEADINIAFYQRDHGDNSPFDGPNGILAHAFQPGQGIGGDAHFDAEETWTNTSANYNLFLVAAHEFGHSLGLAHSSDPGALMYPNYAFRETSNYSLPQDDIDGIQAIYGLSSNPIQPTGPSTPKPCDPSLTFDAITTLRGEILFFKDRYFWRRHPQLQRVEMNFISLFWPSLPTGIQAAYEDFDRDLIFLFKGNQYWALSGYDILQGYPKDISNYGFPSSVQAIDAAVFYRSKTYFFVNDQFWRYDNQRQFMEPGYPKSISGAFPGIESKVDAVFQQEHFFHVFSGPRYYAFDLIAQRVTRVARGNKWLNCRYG

SMILES	IC50 [1]	IC50 [2]	IC50 [3]	IC50 [4]
O=C(CC(CCn1nnc2ccccc2c1=O)C(=O)O)c1cc2cc(OCc3ccccc3)ccc2o1 (single isomer, unassigned; (+)) [Example 30, (+)-4-[5-(Benzyloxy)-1-benzofur-2-yl]-4-oxo-2-[2-(4-oxo-1,2,3-benzotriazin-3(4H)-yl)ethyl]butanoic acid]	32 µM	6.1 µM	27 µM	31 µM
CCCOc1ccc2cc(C(=O)CC(CCn3nnc4ccccc4c3=O)C(=O)O)oc2c1 (racemic) [Example 58, (+/−)-4-Oxo-2-[2-(4-oxo-1,2,3-benzotriazin-3(4H)-yl)ethyl]-4-(6-propoxy-1-benzofur-2-yl)butanoic acid]	10 µM	10 µM	10 µM	2.2 µM
O=C(CC(CCn1nnc2ccccc2c1=O)C(=O)O)c1cc2ccc(OCCc3ccccc3)cc2s1 (racemic) [Example 114, (+/−)-4-Oxo-2-[2-(4-oxo-1,2,3-benzotriazin-3(4H)-yl)ethyl]-4-[6-(2-phenylethoxy)-1-benzothiophen-2-yl]butanoic acid]	3.2 µM	0.083 µM	0.24 µM	2.1 µM
O=C(CC(CCn1nnc2ccccc2c1=O)C(=O)O)c1noc2cc(OCc3ccc(F)cc3)ccc12 (racemic) [Example 136, (+/−)-4-{6-[(4-Fluorobenzyl)oxy]-1,2-benzoxazol-3-yl}-4-oxo-2-[2-(4-oxo-1,2,3-benzotriazin-3(4H)-yl)ethyl]butanoic acid]	1.2 µM	0.32 µM	0.19 µM	4.9 µM
O=C(CC(CCn1nnc2ccccc2c1=O)C(=O)O)c1cc2cc(OCC3CCCCC3)ccc2o1 (racemic) [Example 8, (+/−)-4-[5-(Cyclohexylmethoxy)-1-benzofur-2-yl]-4-oxo-2-[2-(4-oxo-1,2,3-benzotriazin-3(4H)-yl)ethyl]butanoic acid]	30 µM	> 40 µM	13 µM	> 40 µM
Cc1cccc(COc2ccc3oc(C(=O)CC(CCn4nnc5ccccc5c4=O)C(=O)O)cc3c2)c1 (racemic) [Example 51, (+/−)-4-{5-[(3-Methylbenzyl)oxy]-1-benzofur-2-yl}-4-oxo-2-[2-(4-oxo-1,2,3-benzotriazin-3(4H)-yl)ethyl]butanoic acid]	34 µM	19 µM	30 µM	> 40 µM
O=C(CC(CCn1nnc2ccccc2c1=O)C(=O)O)c1cc2cc(OCc3cccc(Cl)c3)ccc2o1 (racemic) [Example 50, (+/−)-4-{5-[(3-Chlorobenzyl)oxy]-1-benzofur-2-yl}-4-oxo-2-[2-(4-oxo-1,2,3-benzotriazin-3(4H)-yl)ethyl]butanoic acid]	36 µM	3.8 µM	26 µM	> 40 µM
O=C(CC(CCn1nnc2ccccc2c1=O)C(=O)O)c1cc2ccc(OCC3CC3)cc2s1 (racemic) [Example 111, (+/−)-4-[6-(Cyclopropylmethoxy)-1-benzothiophen-2-yl]-4-oxo-2-[2-(4-oxo-1,2,3-benzotriazin-3(4H)-yl)ethyl]butanoic acid]	0.46 µM	0.35 µM	1.1 µM	6 µM
O=C(CC(CCn1nnc2ccccc2c1=O)C(=O)O)c1noc2cc(OCc3ccccc3)ccc12 (racemic) [Example 145, (+/−)-4-[6-(Benzyloxy)-1,2-benzoxazol-3-yl]-4-oxo-2-[2-(4-oxo-1,2,3-benzotriazin-3(4H)-yl)ethyl]butanoic acid]	2.8 µM	0.43 µM	0.17 µM	4 µM
O=C(CC(CCn1nnc2ccccc2c1=O)C(=O)O)c1coc2cc(OCCC3CCCC3)ccc12 (racemic) [Example 75, (+/−)-4-[6-(2-Cyclopentylethoxy)-1-benzofur-3-yl]-4-oxo-2-[2-(4-oxo-1,2,3-benzotriazin-3(4H)-yl)ethyl]butanoic acid]	3.3 µM	0.39 µM	0.45 µM	6.5 µM
O=C(CC(CCn1nnc2ccccc2c1=O)C(=O)O)c1cc2cc(OCc3ccc(C(F)(F)F)cc3)ccc2o1 (racemic) [Example 44, (+/−)-4-Oxo-2-[2-(4-oxo-1,2,3-benzotriazin-3(4H)-yl)ethyl]-4-(5-{[4-(trifluoromethyl)benzyl]oxy}-1-benzofur-2-yl)butanoic acid]	28 µM	> 40 µM	9.9 µM	13 µM
CCCCCOc1ccc2cc(C(=O)CC(CCn3nnc4ccccc4c3=O)C(=O)O)sc2c1 (racemic) [Example 118, (+/−)-4-Oxo-2-[2-(4-oxo-1,2,3-benzotriazin-3(4H)-yl)ethyl]-4-[6-(pentyloxy)-1-benzothiophen-2-yl]butanoic acid]	9.3 µM	0.35 µM	1.2 µM	19 µM
O=C(CC(CCn1nnc2ccccc2c1=O)C(=O)O)c1cc2cc(OCCC3CCCC3)ccc2o1 (racemic) [Example 7, (+/−)-4-[5-(2-Cyclopentylethoxy)-1-benzofur-2-yl]-4-oxo-2-[2-(4-oxo-1,2,3-benzotriazin-3(4H)-yl)ethyl]butanoic acid]	22 µM	0.92 µM	5 µM	> 40 µM
O=C(CC(CCn1nnc2ccccc2c1=O)C(=O)O)c1cc2ccc(OCCCC3CCCCC3)cc2o1 (racemic) [Example 71, (+/−)-4-[6-(3-Cyclohexylpropoxy)-1-benzofur-2-yl]-4-oxo-2-[2-(4-oxo-1,2,3-benzotriazin-3(4H)-yl)ethyl]butanoic acid]	> 40 µM	> 40 µM	> 40 µM	> 40 µM

From patent publication US20170121315A1, “HETEROBICYCLICALLY SUBSTITUTED 4-OXOBUTANE ACID DERIVATIVES AND USE THEREOF” (priority 2014, published 2017)
